# Target: T1, IRAK4 (Homo sapiens, UniProt Q9NWZ3)
# T1 construct: expressed in transfected cells; host or cells: THP1 (THP1-HIBiT-IRAK4 engineered line)
# T1 sequence (Q9NWZ3 1-460): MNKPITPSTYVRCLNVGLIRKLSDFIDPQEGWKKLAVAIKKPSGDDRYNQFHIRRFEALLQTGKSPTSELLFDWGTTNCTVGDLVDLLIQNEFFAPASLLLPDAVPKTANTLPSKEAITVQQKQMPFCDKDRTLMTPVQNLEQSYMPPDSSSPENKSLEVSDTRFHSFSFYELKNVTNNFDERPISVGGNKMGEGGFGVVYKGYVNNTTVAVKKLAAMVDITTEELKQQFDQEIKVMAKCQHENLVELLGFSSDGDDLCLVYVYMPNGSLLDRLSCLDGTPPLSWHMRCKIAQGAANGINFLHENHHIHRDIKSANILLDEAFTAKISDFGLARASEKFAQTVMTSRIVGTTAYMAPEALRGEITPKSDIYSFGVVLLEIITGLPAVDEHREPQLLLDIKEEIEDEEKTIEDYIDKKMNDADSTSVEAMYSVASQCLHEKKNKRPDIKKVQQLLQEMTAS
# Assay: HiBiT-based intracellular degradation assay of THP1-HIBiT-IRAK4 cells
# Assay type: cell-based
# Conditions: half-maximal degradation concentration of IRAK4 protein, 24 h incubation
# Method: HiBiT-based intracellular degradation assay of THP1-HIBiT-IRAK4 cells
# THP1-HIBiT-IRAK4 cells were cultured in RPMI 1640 medium supplemented with 10% fetal bovine serum (FBS) and 1% penicillin-streptomycin (PS) (37°C and 5% CO2). The THP1-HIBiT-IRAK4 cells were inoculated in a 384-well plate at 5000 cells/40 µL/well. Compound solutions with different concentrations were added at 40 nL/well and incubated for 24 h at 37°C in 5% CO2. HiBiT lysis detection reagents were added to the wells, the plate was incubated for 30 min at room temperature, and luminescence values were read on Envision. [formula]
# The DC50 (half-maximal degradation concentration) of each compound was obtained using XLfit software and the following nonlinear fitting equation: Y = bottom + (top−bottom)/(1+10^(∧)((LogDC50−X)×Hillslope)). [formula]
# X denotes a log value of the compound concentration.
# Y denotes the degradation rate.
# Table 1 lists the results of DC50 values of IRAK4 protein degradation. […]
row,Compound,DC50 [nM]
1,"CC(C)(O)c1cc2nc(C3CCN(CC4CCN(c5cc6c(cc5F)C(=O)N([C@H]5CCC(=O)NC5=O)C6=O)CC4)CC3)cn2cc1NC(=O)c1cccc(C(F)(F)F)n1 [Example 26, (S)-N-(2-(1-((1-(2-(2,6-dioxopiperidin-3-yl)-6-fluoro-1,3-dioxoisoindolin-5-yl)piperidin-4-yl)methyl)piperidin-4-yl)-7-(2-hydroxypropan-2-yl)imidazo[1,2-a]pyridin-6-yl)-6-(trifluoromethyl)pyridine-2-carboxamide]",2.15
2,"CC(C)(O)c1cc2nc(C3CCN(CCN4CCN(c5ccc6c(c5)C(=O)N(C5CCC(=O)NC5=O)C6=O)CC4)CC3)cn2cc1NC(=O)c1cccc(C(F)(F)F)n1 (centres unmarked) [Example 9, N-(2-(1-(2-(4-(2-(2,6-dioxopiperidin-3-yl)-1,3-dioxoisoindolin-5-yl)piperazin-1-yl)ethyl)piperidin-4-yl)-7-(2-hydroxypropan-2-yl)imidazo[1,2-a]pyridin-6-yl)-6-(trifluoromethyl)pyridine-2-carboxamide]",0.87
3,"CC(C)(O)c1cc2nc(C3CCN(CCN4CCC5(CC4)CN(c4ccc6c(c4)C(=O)N(C4CCC(=O)NC4=O)C6=O)C5)CC3)cn2cc1NC(=O)c1cccc(C(F)(F)F)n1 (centres unmarked) [Example 16, N-(2-(1-(2-(2-(2-(2,6-dioxopiperidin-3-yl)-1,3-dioxoisoindolin-5-yl)-2,7-diazaspiro[3.5]nonan-7-yl)ethyl)piperidin-4-yl)-7-(2-hydroxypropan-2-yl)imidazo[1,2-a]pyridin-6-yl)-6-(trifluoromethyl)pyridine-2-carboxamide]",3.33
4,"CC(C)(O)c1cc2nc(C3CCN(CC4C5CN(c6ccc7c(c6)C(=O)N(C6CCC(=O)NC6=O)C7=O)CC45)CC3)cn2cc1NC(=O)c1cccc(C(F)(F)F)n1 (centres unmarked) [Example 24, N-(2-(1-((3-(2-(2,6-dioxopiperidin-3-yl)-1,3-dioxoisoindolin-5-yl)-3-azabicyclo[3.1.0]hexan-6-yl)methyl)piperidin-4-yl)-7-(2-hydroxypropan-2-yl)imidazo[1,2-a]pyridin-6-yl)-6-(trifluoromethyl)pyridine-2-carboxamide]",1.87
5,"CC(C)(O)c1cc2nc(C3CCN(CC(=O)N4CCC5(CC4)CN(c4ccc6c(c4)C(=O)N(C4CCC(=O)NC4=O)C6=O)C5)CC3)cn2cc1NC(=O)c1cccc(C(F)(F)F)n1 (centres unmarked) [Example 5, N-(2-(1-(2-(2-(2-(2,6-dioxopiperidin-3-yl)-1,3-dioxoisoindolin-5-yl)-2,7-diazaspiro[3.5]nonan-7-yl)-2-oxoethyl)piperidin-4-yl)-7-(2-hydroxypropan-2-yl)imidazo[1,2-a]pyridin-6-yl)-6-(trifluoromethyl)pyridine-2-carboxamide]",3.69
6,"CC(C)(O)c1cc2nc(C3CCN(CCC4CCN(c5ccc6c(c5)C(=O)N(C5CCC(=O)NC5=O)C6=O)CC4)CC3)cn2cc1NC(=O)c1cccc(C(F)(F)F)n1 (centres unmarked) [Example 18, N-(2-(1-(2-(1-(2-(2,6-dioxopiperidin-3-yl)-1,3-dioxoisoindolin-5-yl)piperidin-4-yl)ethyl)piperidin-4-yl)-7-(2-hydroxypropan-2-yl)imidazo[1,2-a]pyridin-6-yl)-6-(trifluoromethyl)pyridine-2-carboxamide]",4.29
7,"CC(C)(O)c1cc2nc(C3CCN(CCN4CC5(CCN(c6ccc7c(c6)C(=O)N(C6CCC(=O)NC6=O)C7=O)CC5)C4)CC3)cn2cc1NC(=O)c1cccc(C(F)(F)F)n1 (centres unmarked) [Example 17, N-(2-(1-(2-(7-(2-(2,6-dioxopiperidin-3-yl)-1,3-dioxoisoindolin-5-yl)-2,7-diazaspiro[3.5]nonan-2-yl)ethyl)piperidin-4-yl)-7-(2-hydroxypropan-2-yl)imidazo[1,2-a]pyridin-6-yl)-6-(trifluoromethyl)pyridine-2-carboxamide]",4.86
8,"CC(C)(O)c1cc2nc(C3CCN(CCCN4CCN(c5ccc6c(c5)C(=O)N(C5CCC(=O)NC5=O)C6=O)CC4)CC3)cn2cc1NC(=O)c1cccc(C(F)(F)F)n1 (centres unmarked) [Example 19, N-(2-(1-(3-(4-(2-(2,6-dioxopiperidin-3-yl)-1,3-dioxoisoindolin-5-yl)piperazin-1-yl)propyl)piperidin-4-yl)-7-(2-hydroxypropan-2-yl)imidazo[1,2-a]pyridin-6-yl)-6-(trifluoromethyl)pyridine-2-carboxamide]",1.95
9,"CC(C)(O)c1cc2nc(C3CCN(CC(=O)N4CCN(c5ccc6c(c5)C(=O)N(C5CCC(=O)NC5=O)C6=O)CC4)CC3)cn2cc1NC(=O)c1cccc(C(F)(F)F)n1 (centres unmarked) [Example 2, N-(2-(1-(2-(4-(2-(2,6-dioxopiperidin-3-yl)-1,3-dioxoisoindolin-5-yl)piperazin-1-yl)-2-oxoethyl)piperidin-4-yl)-7-(2-hydroxypropan-2-yl)imidazo[1,2-a]pyridin-6-yl)-6-(trifluoromethyl) pyridine-2-carboxamide]",4.46
10,"COc1cc2nc(C3CCN(CCN4CCN(c5ccc6c(c5)C(=O)N(C5CCC(=O)NC5=O)C6=O)CC4)CC3)cn2cc1NC(=O)c1cccc(C(F)(F)F)n1 (centres unmarked) [Example 11, N-(2-(1-(2-(4-(2-(2,6-dioxopiperidin-3-yl)-1,3-dioxoisoindolin-5-yl)piperazin-1-yl)ethyl)piperidin-4-yl)-7-methoxyimidazo[1,2-a]pyridin-6-yl)-6-(trifluoromethyl)pyridine-2-carboxamide]",2.23
11,"CC(C)(O)c1cc2nc(C3CCN(CCCC(=O)N4CCN(c5ccc6c(c5)C(=O)N(C5CCC(=O)NC5=O)C6=O)CC4)CC3)cn2cc1NC(=O)c1cccc(C(F)(F)F)n1 (centres unmarked) [Example 4, N-(2-(1-(4-(4-(2-(2,6-dioxopiperidin-3-yl)-1,3-dioxoisoindolin-5-yl)piperazin-1-yl)-4-oxobutyl)piperidin-4-yl)-7-(2-hydroxypropan-2-yl)imidazo[1,2-a]pyridin-6-yl)-6-(trifluoromethyl)pyridine-2-carboxamide]",5.05
12,"CC(C)(O)c1cc2nc(C3CCN(CCC(=O)N4CCN(c5ccc6c(c5)C(=O)N(C5CCC(=O)NC5=O)C6=O)CC4)CC3)cn2cc1NC(=O)c1cccc(C(F)(F)F)n1 (centres unmarked) [Example 3, N-(2-(1-(3-(4-(2-(2,6-dioxopiperidin-3-yl)-1,3-dioxoisoindolin-5-yl)piperazin-1-yl)-3-oxopropyl)piperidin-4-yl)-7-(2-hydroxypropan-2-yl)imidazo[1,2-a]pyridin-6-yl)-6-(trifluoromethyl)pyridine-2-carboxamide]",13.9
13,"COc1cc2nc(C3CCN(CCN4CCN(c5ccc6c(c5)CN(C5CCC(=O)NC5=O)C6=O)CC4)CC3)cn2cc1NC(=O)c1cccc(C(F)(F)F)n1 (centres unmarked) [Example 12, N-(2-(1-(2-(4-(2-(2,6-dioxopiperidin-3-yl)-1-oxoisoindolin-5-yl)piperazin-1-yl)ethyl)piperidin-4-yl)-7-methoxyimidazo[1,2-a]pyridin-6-yl)-6-(trifluoromethyl)pyridine-2-carboxamide]",1.05
14,"CC(C)(O)c1cc2nc(C3CCN(CCCCC#Cc4cccc5c4CN(C4CCC(=O)NC4=O)C5=O)CC3)cn2cc1NC(=O)c1cccc(C(F)(F)F)n1 (centres unmarked) [Comparative Example 2, N-(2-(1-(6-(2-(2,6-dioxopiperidin-3-yl)-1-oxoisoindolin-4-yl)hex-5-yn-1-yl)piperidin-4-yl)-7-(2-hydroxypropan-2-yl)imidazo[1,2-a]pyridin-6-yl)-6-(trifluoromethyl)pyridine-2-carboxamide, reference compound]",> 10000
15,"COc1cc2nc(C3CCN(CC4CCN(c5ccc6c(c5)C(=O)N(C5CCC(=O)NC5=O)C6=O)CC4)CC3)cn2cc1NC(=O)c1cccc(C(F)(F)F)n1 (centres unmarked) [Example 8, N-(2-(1-((1-(2-(2,6-dioxopiperidin-3-yl)-1,3-dioxoisoindolin-5-yl)piperidin-4-yl)methyl)piperidin-4-yl)-7-methoxyimidazo[1,2-a]pyridin-6-yl)-6-(trifluoromethyl)pyridine-2-carboxamide]",16.3
16,"CC(C)(O)c1cc2nc(C3CCN(CC(=O)N4CC5(CCN(c6ccc7c(c6)C(=O)N(C6CCC(=O)NC6=O)C7=O)CC5)C4)CC3)cn2cc1NC(=O)c1cccc(C(F)(F)F)n1 (centres unmarked) [Example 6, N-(2-(1-(2-(7-(2-(2,6-dioxopiperidin-3-yl)-1,3-dioxoisoindolin-5-yl)-2,7-diazaspiro[3.5]nonan-2-yl)-2-oxoethyl)piperidin-4-yl)-7-(2-hydroxypropan-2-yl)imidazo[1,2-a]pyridin-6-yl)-6-(trifluoromethyl)pyridine-2-carboxamide]",7.83
17,"CC(C)(O)c1cc2nc(C3CCN(CCN4CC5(C4)CN(c4ccc6c(c4)C(=O)N(C4CCC(=O)NC4=O)C6=O)C5)CC3)cn2cc1NC(=O)c1cccc(C(F)(F)F)n1 (centres unmarked) [Example 21, N-(2-(1-(2-(6-(2-(2,6-dioxopiperidin-3-yl)-1,3-dioxoisoindolin-5-yl)-2,6-diazaspiro[3.3]heptan-2-yl)ethyl)piperidin-4-yl)-7-(2-hydroxypropan-2-yl)imidazo[1,2-a]pyridin-6-yl)-6-(trifluoromethyl)pyridine-2-carboxamide]",2.3
